The source of these data is ChEMBL document CHEMBL3044871, “Importance of some classes of molecular descriptors on classification of antitumor acridinones using factor analysis” (2012).

For the first test, the system named is P388. The test is described as follows: Antitumor activity against Mus musculus (mouse) P388 cells xenografted in Mus musculus (mouse) assessed as increase in life span at 25 mg/kg relative to control. In kind it is functional.
Consider `CN(C)CCN(C)c1ccc2nnn3c4ccc(O)cc4c(=O)c1c23`, for which the Activity is 10%. Same read-out and setting: next, `CN(C)CCCNc1ccc2nnn3c4ccc(O)cc4c(=O)c1c23`: 165%. Same read-out and setting: next, `CN(C)CCNc1ccc2nnn3c4ccc(O)cc4c(=O)c1c23`: 102%.

The next test deals with P388. The test can be described thus: Antitumor activity against Mus musculus (mouse) P388 cells xenografted in Mus musculus (mouse) assessed as increase in life span at 100 mg/kg relative to control. In kind it is functional.
For `CN(C)CCNc1ccc2nnn3c4ccccc4c(=O)c1c23`, the Activity is on record as 77%. On the same count and under the same terms, next, `Cc1ccc2c(c1)c(=O)c1c(NCCCN(C)C)ccc3nnn2c31`: 18%.

The next test deals with P388. The test can be described thus: Antitumor activity against Mus musculus (mouse) P388 cells xenografted in Mus musculus (mouse) assessed as increase in life span relative to control. In kind it is functional. More on the design: concentration or dose not given beside the values.
For the compound `CCN(CC)CCNc1ccc2ncn3c4ccccc4c(=O)c1c23`, the Activity turned out to be 55%. The same measure, in the same setting: next, `CN(C)CCNc1ccc2ncn3c4ccc(O)cc4c(=O)c1c23`: 110%; `CCN(CC)CCNc1ccc2ncn3c4ccc(OC)cc4c(=O)c1c23`: 96%; `CN(C)CCCNc1ccc2ncn3c4ccc(O)cc4c(=O)c1c23`: 120%. With `CCN(CC)CCNc1ccc2nc(C)n3c4ccc(O)cc4c(=O)c1c23`, the Activity is listed as 185%.

As for `CN(C)CCCNc1ccc2ncn3c4ccccc4c(=O)c1c23`, the Activity is given as 25%. For the compound `CN(C)CCCCCNc1ccc2ncn3c4ccccc4c(=O)c1c23`, the Activity was found to be 10%. Same read-out and setting: the same measure for `CN(C)CCNc1ccc2ncn3c4ccccc4c(=O)c1c23`: 90%; for `CCN(CC)CCCCCNc1ccc2ncn3c4ccc(C)cc4c(=O)c1c23`: 20%. Still for that read-out and setting: next, `CCNCCNc1ccc2nnn3c4ccc(O)cc4c(=O)c1c23`: 78%; `CN(C)CCNc1ccc2nnn3c4ccc(C(C)(C)C)cc4c(=O)c1c23`: 0%. The same measure, in the same setting: next, `CN(C)CCCCCNc1ccc2ncn3c4ccc(O)cc4c(=O)c1c23`: 85%; `CCN(CC)CCNc1ccc2ncn3c4cc(O)ccc4c(=O)c1c23`: 27%.

Regarding `CCN(CC)CCNc1ccc2ncn3c4ccc(C(C)(C)C)cc4c(=O)c1c23`, the Activity was found to be 0%. On to `CCN(CC)CCNc1ccc2ncn3c4ccc(O)cc4c(=O)c1c23` [C-1311], for which the Activity is 93%.
